Reference: patent US8163894B2, “DNA for eukaryotic expression of CymR” (National Research Council of Canada, priority 2001, dated 2012)

Assays:
Assay type in all cases: cell-based
[1] = target: CymR-VP16 transactivator in BMAdE1/78-42 cells (Pseudomonas putida, UniProt O33453)
Description: Transient transfections in BMAD78-42 were carried out using Geneporter™ according to manufacturers directions. Briefly, 3 μg DNA (2 μg reporter, 25 ng transactivator and 0.5 μg seap) in 500 μl DMEM was added to 6×10^5 BMAd78-42 cells in DMEM. After 3 h 1 ml DMEM supplemented with 20% serum was added to the plates. Half the samples received DMEM supplemented with 20% serum and 400 μg/ml cumate.
Measurement of Seap and β-gal activity Seap activity was measured in 50 μl of cell culture medium by adding 50 μl of 2× seap buffer (1M diethanolamine PH 9.8, 2 mM MgCl2, 10 mM 1-homoarginine and 20 mM p-nitrophenyl phosphate, disodium, hexahydrate Sigma 104 phosphatase substrate) and incubating at room temperature. OD405 was read using a plate reader at different intervals. This information was used to ensure that the enzyme activity was measured under conditions where the substrate was in excess. β-galactosidase activity was measured in transfected cell extracts. Cells were lysed 48 h post-transfection by three freeze-thaw cycles in 0.25M Tris.Hcl pH8. The cell lysate was centrifuged at 14,000×g and enzyme (β-galactosidase) activity was measured in the supernatant (cell extract) using a colorimetric assay containing 1 mM MgCl2, 0.9 mg/ml ONPG, and 66 mM sodium phosphate (pH 7.5). […] OD420 was measured at regular intervals until the reaction appeared to plateau. […]

[2] = tested on: CHO-cTA clones (cumate transactivator); assay: Adenoviral infection of CHO-cTA clones, total GFP fluorescence by flow cytometry
Description: 1×10^6 CHO cells were transfected with 5 μg of pMPG-cTA-tk-neo-nls using 12 μl of LIPOFECTAMINE 2000 according to the instructions of the manufacturer. 1200 μg/ml G418 was added to the growth medium 48 h after transfection to select a pool of G418-resistant cells. Individual clones (CHO-cTA) were isolated from this pool by the method of limiting dilution.
CHO-cTA clones were infected with AdCMV5GFPq or AdCR5GFPq at MOIs of 100, 300 and 900 in the presence or absence of 200 μg/ml cumate. Forty-eight hours post-infection, cells were fixed in 2% paraformaldehyde in PBS. Total GFP fluorescence of the infected population was measured using an EPICS-XL flow cytometer (Coulter).

mammalian cells = assay: Effect of cumate on morphology, growth and toxicity in mammalian cells
[3] = target: T1, CymR repressor in 293 cells (Pseudomonas putida, UniProt O33453); assay: Strategy 2: CymR-mediated repression of CMV5-operator LacZ reporters, transient transfection in 293 cells
T1 construct: expressed in transfected cells; host or cells: 293 cells
T1 sequence (O33453 whole entry): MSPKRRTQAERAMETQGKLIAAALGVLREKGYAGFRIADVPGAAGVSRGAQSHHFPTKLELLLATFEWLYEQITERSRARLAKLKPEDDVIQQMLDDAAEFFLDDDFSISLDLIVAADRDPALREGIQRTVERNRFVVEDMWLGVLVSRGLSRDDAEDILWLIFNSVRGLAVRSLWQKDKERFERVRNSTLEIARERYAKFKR
Description: Transient transfections in 293 and HeLa cells were carried out using the calcium phosphate technique. One (1) ml of DNA-calcium phosphate precipitate contained 5 μg reporter, 250 ng activator/repressor (unless mentioned otherwise) and 3 μg seap in a total of 10 μg DNA. This was divided equally between two 60 mm plates, each containing 10^6 293 cells. One of the two plates received in addition 200 μg/ml cumate.
Cells were lysed 48 h post-transfection by three freeze-thaw cycles in 0.25M Tris.Hcl pH8. The cell lysate was centrifuged at 14,000×g and enzyme (β-galactosidase) activity was measured in the supernatant (cell extract) using a colorimetric assay containing 1 mM MgCl2, 0.9 mg/ml ONPG, and 66 mM sodium phosphate (pH 7.5). Reactions were incubated at 37° C. until a faint yellow color had developed. OD420 was measured at regular intervals until the reaction appeared to plateau. To measure low level activity (basal activity in the absence of transactivation) a chemiluminescent substrate was used. The reaction was performed using a kit from Roche diagnostics according to the instructions of the manufacturer.

Chain of CymR-VP16 transactivator in BMAdE1/78-42 cells (O33453 whole entry, added parts left off): as the sequence (O33453 whole entry) above

CC(C)c1ccc(C(=O)O)cc1 [cumate, cumic acid]
reduction of activation on addition of cumate ([1]; BMAdE1/78-42, pAdcTA1(+nls)): 3.9 fold
reduction in activation on addition of cumate ([1]; BMAdE1/78-42, pAdcTA1(−nls)): 22 fold
GFP expression over mock infected cells after addition of cumate ([2]; AdCR5-GFPq MOI 100, 200 μg/ml cumate): 2 fold
GFP expression over mock infected cells after addition of cumate ([2]; AdCR5-GFPq MOI 300, 200 μg/ml cumate): 4.5 fold
GFP expression over mock infected cells after addition of cumate ([2]; AdCR5-GFPq MOI 900, 200 μg/ml cumate): 20.6 fold
effects on morphology or growth rates (mammalian cells; 200 μg/ml cumate in media, 4 weeks): No visible effects
toxicity to mammalian cells (mammalian cells; concentrations that effectively regulate gene expression): does not appear to be toxic
activity of the unrepressed state recovered on addition of cumate ([3]; nls-containing repressor, pAdCMV5-Og-LacZ): 61%
relief of repression on addition of cumate ([3]; nls-containing repressor, pAdCMV5-Os-LacZ): relieved the repression completely
relief of repression on addition of cumate ([3]; pAdCymR, both pAdCMV5-Os-LacZ and pAdCMV5-Og-LacZ): relieved the repression totally
